Reference: patent publication US20240409585A1, “MACROCYCLIC IMMUNOMODULATORS” (priority 2021, published 2024)
Numbered stars: 1 amine (or outer) side, 2 acyl side, 3 side chain; on linkers, the order of the positions; unused ones are H or OH. Bridge positions count the residues as written; N and C are the ends. Square brackets hold non-standard residues; d marks the D form. Peptide text beside a SMILES is read from it. * marks the point of attachment. ξ: configuration not given here. Gly(1-amidinopiperidin-4-yl) = N=C(N)N1CCC([C@H](N)C(=O)O)CC1; Ala(Nα-(CH2)3NH) = C[C@@H](C(=O)[*:2])N(CCCN[*:3])[*:1]; Phe(4-COOH) = N[C@@H](Cc1ccc(C(=O)O)cc1)C(=O)O; Bip = N[C@@H](Cc1ccc(-c2ccccc2)cc1)C(=O)O; Phe(4-CN) = N#Cc1ccc(C[C@H](N)C(=O)O)cc1; Phe(3-F) = N[C@@H](Cc1cccc(F)c1)C(=O)O; Phe(3-Me) = Cc1cccc(C[C@H](N)C(=O)O)c1; 4Pal = N[C@@H](Cc1ccncc1)C(=O)O; 3Thi = N[C@@H](Cc1ccsc1)C(=O)O; Cha = N[C@@H](CC1CCCCC1)C(=O)O; Cit = NC(=O)NCCC[C@H](N)C(=O)O; Ile(3ξ) = CCC(C)[C@H](N)C(=O)O; Thr(3ξ) = CC(O)[C@H](N)C(=O)O; Carboxymethyl = O=C(O)C*; NMeA = CN[C@@H](C)C(=O)O; Orn = NCCC[C@H](N)C(=O)O; Dab = NCC[C@H](N)C(=O)O; Dap = NC[C@H](N)C(=O)O; ξC = NC(CS)C(=O)O

The molecules below were run against T1, PE-labeled human PD-L1-Ig binding to Jurkat cell line over-expressing human PD-1 (Jurkat-PD-1) (Homo sapiens, UniProt Q15116) (assay: Jurkat-PD-1 Cell Binding High-Content Screening Assay (CBA): Method 1). Conditions: Jurkat-hPD-1 cells, PE-labeled PD-L1-Ig 20 nM final; read-out: Jurkat HPDL1 PD1 IC50 (uM) (Method 1).
T1 construct: expressed in transfected cells; host or cells: Jurkat
T1 sequence (Q15116 25-288): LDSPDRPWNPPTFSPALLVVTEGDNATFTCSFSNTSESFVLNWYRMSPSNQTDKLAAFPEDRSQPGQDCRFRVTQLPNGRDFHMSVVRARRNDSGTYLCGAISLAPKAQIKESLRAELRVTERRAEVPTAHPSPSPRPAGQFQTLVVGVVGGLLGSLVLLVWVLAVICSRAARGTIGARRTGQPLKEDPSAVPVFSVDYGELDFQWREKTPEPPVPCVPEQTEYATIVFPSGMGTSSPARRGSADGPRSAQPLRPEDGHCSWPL

Structure (SMILES)	IC50 [µM]
CC(C)C[C@@H]1NC(=O)[C@H](Cc2c[nH]c3ccccc23)NC(=O)[C@H](CC(=O)O)NC(=O)[C@H](Cc2ccc(C#N)cc2)NC(=O)[C@H](Cc2ccccc2)NC(=O)CSC[C@@H](C(=O)NCC(N)=O)NC(=O)[C@H](CO)NC(=O)[C@H](C(C)C)NC(=O)[C@H](CC(C)C)NC(=O)[C@H](CC(N)=O)NC(=O)[C@@H](CC(C)C)NC(=O)[C@H](C)N(C)C(=O)[C@H](C(C)C)NC(=O)[C@H](Cc2ccc(-c3ccccc3)cc2)NC1=O [Compound 1525] ({CH2CO}-F[Phe(4-CN)]DWL[Bip]V[NMeA][dL]NLVSCG-NH2; thioether N-14)	0.03
CC(C)C[C@H]1NC(=O)[C@H](C)N(C)C(=O)[C@H](CCCN)NC(=O)[C@H](Cc2ccc(-c3ccccc3)cc2)NC(=O)[C@H](C(C)C)NC(=O)[C@H](Cc2c[nH]c3ccccc23)NC(=O)[C@H](CC(=O)O)NC(=O)[C@H](Cc2ccc(O)cc2)NC(=O)[C@H](CC(N)=O)NC(=O)CSC[C@@H](C(=O)N[C@@H](C)C(N)=O)NC(=O)[C@H]([C@@H](C)O)NC(=O)[C@H](C(C)C)NC(=O)[C@H](CC2CCCCC2)NC(=O)[C@H](CCCNC(=N)N)NC1=O [Compound 1276] ({CH2CO}-NYDWV[Bip][Orn][NMeA][dL]R[Cha]VTCA-NH2; thioether N-14)	0.03
Cc1cccc(C[C@@H]2NC(=O)[C@H](CC(=O)O)NC(=O)[C@H](Cc3ccc(OCC(=O)O)cc3)NC(=O)[C@H](Cc3ccc(OCC(=O)O)cc3)NC(=O)CSC[C@@H](C(N)=O)NC(=O)[C@H]([C@@H](C)O)NC(=O)[C@H](C(C)C)NC(=O)[C@H](CC3CCCCC3)NC(=O)[C@H](CCN)NC(=O)[C@@H](CC(C)C)NC(=O)[C@H](C)N(C)C(=O)[C@H](Cc3ccc(OCC(=O)O)cc3)NC(=O)[C@H](Cc3ccc(-c4ccccc4)cc3)NC(=O)[C@H](Cc3ccc(OCC(=O)O)cc3)NC2=O)c1 [Compound 1656] ({CH2CO}-Y(Carboxymethyl)Y(Carboxymethyl)D[Phe(3-Me)]Y(Carboxymethyl)[Bip]Y(Carboxymethyl)[NMeA][dL][Dab][Cha]VTC-NH2; thioether N-14)	0.03
Cc1cccc(C[C@@H]2NC(=O)[C@H](CC(=O)O)NC(=O)[C@H](Cc3ccc(C(=O)O)cc3)NC(=O)[C@H](Cc3ccc(OCC(=O)O)cc3)NC(=O)CSC[C@@H](C(=O)N[C@@H](C)C(N)=O)NC(=O)[C@H]([C@@H](C)O)NC(=O)[C@H](C(C)C)NC(=O)[C@H](CC(C)C)NC(=O)[C@H](CCN)NC(=O)[C@@H](CC(C)C)NC(=O)[C@H](C)N(C)C(=O)[C@H](C(C)C)NC(=O)[C@H](Cc3ccc(-c4ccccc4)cc3)NC(=O)[C@H](C(C)C)NC2=O)c1 [Compound 1571] ({CH2CO}-Y(Carboxymethyl)[Phe(4-COOH)]D[Phe(3-Me)]V[Bip]V[NMeA][dL][Dab]LVTCA-NH2; thioether N-14)	0.01
Cc1cccc(C[C@@H]2NC(=O)[C@H](CC(=O)O)NC(=O)[C@H](Cc3ccncc3)NC(=O)[C@H](CN)NC(=O)CSC[C@@H](C(N)=O)NC(=O)[C@H](CO)NC(=O)[C@H](C(C)C)NC(=O)[C@H](CC(C)C)NC(=O)[C@H](CC(N)=O)NC(=O)[C@@H](CC(C)C)NC(=O)[C@H](C)N(C)C(=O)[C@H](C(C)C)NC(=O)[C@H](Cc3ccc(-c4ccccc4)cc3)NC(=O)[C@H](CC(C)C)NC2=O)c1 [Compound 1598] ({CH2CO}-[Dap][4Pal]D[Phe(3-Me)]L[Bip]V[NMeA][dL]NLVSC-NH2; thioether N-14)	0.01
CC(C)C[C@@H]1NC(=O)[C@H](CCCNC(=N)N)NC(=O)[C@@H](CC(C)C)NC(=O)[C@H](C)N(C)C(=O)[C@H](CCCNC(=N)N)NC(=O)[C@H](Cc2ccc(-c3ccccc3)cc2)NC(=O)[C@H](C(C)C)NC(=O)[C@H](Cc2cccc(F)c2)NC(=O)[C@H](CC(=O)O)NC(=O)[C@H](Cc2ccc(O)cc2)NC(=O)[C@H](CC(N)=O)NC(=O)CSC[C@@H](C(=O)N[C@@H](C)C(N)=O)NC(=O)[C@H]([C@@H](C)O)NC(=O)[C@H](C(C)C)NC1=O [Compound 1199] ({CH2CO}-NYD[Phe(3-F)]V[Bip]R[NMeA][dL]RLVTCA-NH2; thioether N-14)	0.45
CC[C@H](C)[C@@H]1NC(=O)[C@H](Cc2ccc(-c3ccccc3)cc2)NC(=O)[C@H](C(C)C)NC(=O)[C@H](Cc2c[nH]c3ccccc23)NC(=O)[C@H](CC(=O)O)NC(=O)[C@H](Cc2ccc(O)cc2)NC(=O)[C@H](CC(C)C)NC(=O)CSC[C@@H](C(=O)N[C@@H](C)C(N)=O)NC(=O)[C@H]([C@@H](C)O)NC(=O)[C@H](C(C)C)NC(=O)[C@H](CC(C)C)NC(=O)[C@H](CCN)NC(=O)[C@@H](CC(C)C)NC(=O)[C@H](C)N(C)C1=O [Compound 1392] ({CH2CO}-LYDWV[Bip]I[NMeA][dL][Dab]LVTCA-NH2; thioether N-14)	0.04
CC(C)C[C@@H]1NC(=O)[C@H](CCN)NC(=O)[C@@H](CC(C)C)NC(=O)[C@H](C)N(C)C(=O)CNC(=O)[C@H](Cc2ccc(-c3ccccc3)cc2)NC(=O)[C@H](C(C)C)NC(=O)[C@H](Cc2c[nH]c3ccccc23)NC(=O)[C@H](CC(=O)O)NC(=O)[C@H](Cc2ccc(O)cc2)NC(=O)[C@H](CC(N)=O)NC(=O)CSC[C@@H](C(=O)N[C@@H](C)C(N)=O)NC(=O)[C@H]([C@@H](C)O)NC(=O)[C@H](C(C)C)NC1=O [Compound 1281] ({CH2CO}-NYDWV[Bip]G[NMeA][dL][Dab]LVTCA-NH2; thioether N-14)	0.33
CC(=O)NCCCC[C@@H]1NC(=O)[C@H](C(C)C)NC(=O)[C@H](CC2CCCCC2)NC(=O)[C@H](CCN)NC(=O)[C@@H](CC(C)C)NC(=O)[C@H](C)N(C)C(=O)[C@H](CCC(N)=O)NC(=O)[C@H](Cc2ccc(-c3ccccc3)cc2)NC(=O)[C@H](C(C)C)NC(=O)[C@H](Cc2c[nH]c3ccccc23)NC(=O)[C@H](CC(=O)O)NC(=O)[C@H](Cc2ccc(OCC(=O)O)cc2)NC(=O)[C@H](Cc2ccsc2)NC(=O)CSC[C@@H](C(=O)N[C@@H](CCN)C(N)=O)NC1=O [Compound 2127] ({CH2CO}-[3Thi]Y(Carboxymethyl)DWV[Bip]Q[NMeA][dL][Dab][Cha]VK(Ac)C[Dab]-NH2; thioether N-14)	0.01
CC(C)C[C@@H]1NC(=O)[C@H](CCN)NC(=O)[C@@H](CC(C)C)NC(=O)[C@H](C)N(C)C(=O)[C@H](CCC(=O)O)NC(=O)[C@H](Cc2ccc(-c3ccccc3)cc2)NC(=O)[C@H](C(C)C)NC(=O)[C@H](Cc2c[nH]c3ccccc23)NC(=O)[C@H](CC(=O)O)NC(=O)[C@H](Cc2ccc(OCC(=O)O)cc2)NC(=O)[C@H](CC(N)=O)NC(=O)CSC[C@@H](C(=O)N[C@@H](C)C(N)=O)NC(=O)[C@H]([C@@H](C)O)NC(=O)[C@H](C(C)C)NC1=O [Compound 1390] ({CH2CO}-NY(Carboxymethyl)DWV[Bip]E[NMeA][dL][Dab]LVTCA-NH2; thioether N-14)	0.11
CCC(C)[C@@H]1NC(=O)[C@H](Cc2ccc(-c3ccccc3)cc2)NC(=O)[C@H](C(C)C)NC(=O)[C@H](Cc2c[nH]c3ccccc23)NC(=O)[C@H](CC(=O)O)NC(=O)[C@H](Cc2ccc(O)cc2)NC(=O)[C@H](Cc2ccncc2)NC(=O)CSCC(C(=O)N[C@@H](CCCCN)C(=O)O)NC(=O)[C@H](C(C)O)NC(=O)[C@H](C(C)C)NC(=O)[C@H](CC2CCCCC2)NC(=O)[C@H](CC(N)=O)NC(=O)[C@@H](CC(C)C)NC(=O)[C@H](C)N(C)C1=O (stereo partly drawn) [Compound 2215] ({CH2CO}-[4Pal]YDWV[Bip][Ile(3ξ)][NMeA][dL]N[Cha]V[Thr(3ξ)][ξC]K-OH; thioether N-14)	0.03
CC(C)C[C@@H]1NC(=O)[C@H](CCN)NC(=O)[C@@H](CC(C)C)NC(=O)[C@H](C)N(C)C(=O)[C@H](CCCNC(N)=O)NC(=O)[C@H](Cc2ccc(-c3ccccc3)cc2)NC(=O)[C@H](C(C)C)NC(=O)[C@H](Cc2c[nH]c3ccccc23)NC(=O)[C@H](CC(=O)O)NC(=O)[C@H](Cc2ccc(O)cc2)NC(=O)[C@H](C2CCN(C(=N)N)CC2)NC(=O)CSC[C@@H](C(=O)N[C@@H](C)C(N)=O)NC(=O)[C@H](C(C)O)NC(=O)[C@H](C(C)C)NC1=O (stereo partly drawn) [Compound 2038] ({CH2CO}-[Gly(1-amidinopiperidin-4-yl)]YDWV[Bip][Cit][NMeA][dL][Dab]LV[Thr(3ξ)]CA-NH2; thioether N-14)	0.07
CC(C)C[C@@H]1NC(=O)[C@H](CCN)NC(=O)[C@@H](CC(C)C)NC(=O)[C@H](C)N(CCCN)C(=O)[C@H](CCCNC(=N)N)NC(=O)[C@H](Cc2ccc(-c3ccccc3)cc2)NC(=O)[C@H](C(C)C)NC(=O)[C@H](Cc2c[nH]c3ccccc23)NC(=O)[C@H](CC(=O)O)NC(=O)[C@H](Cc2ccc(O)cc2)NC(=O)[C@H](CC(N)=O)NC(=O)CSC[C@@H](C(=O)N[C@@H](C)C(N)=O)NC(=O)[C@H]([C@@H](C)O)NC(=O)[C@H](C(C)C)NC1=O [Compound 1209] ({CH2CO}-NYDWV[Bip]R[Ala(Nα-(CH2)3NH)][dL][Dab]LVTCA-NH2; thioether N-14)	0.14
CC(C)C[C@@H]1NC(=O)[C@H](CCN)NC(=O)[C@@H](CC(C)C)NC(=O)[C@H](C)N(C)C(=O)[C@H](CCC(=O)O)NC(=O)[C@H](Cc2ccc(-c3ccccc3)cc2)NC(=O)[C@H](C(C)C)NC(=O)[C@H](Cc2c[nH]c3ccccc23)NC(=O)[C@H](CC(=O)O)NC(=O)[C@H](Cc2ccc(O)cc2)NC(=O)[C@H](CC(N)=O)NC(=O)CSC[C@@H](C(=O)N[C@@H](C)C(N)=O)NC(=O)[C@H]([C@@H](C)O)NC(=O)[C@H](C(C)C)NC1=O [Compound 1255] ({CH2CO}-NYDWV[Bip]E[NMeA][dL][Dab]LVTCA-NH2; thioether N-14)	0.03
CC(C)C[C@@H]1NC(=O)[C@H](CCN)NC(=O)[C@@H](CC(C)C)NC(=O)[C@H](C)N(C)C(=O)[C@H](CCC(=O)O)NC(=O)[C@H](Cc2ccc(-c3ccccc3)cc2)NC(=O)[C@H](C(C)C)NC(=O)[C@H](Cc2c[nH]c3ccccc23)NC(=O)[C@H](CC(=O)O)NC(=O)[C@H](Cc2ccc(OCC(=O)O)cc2)NC(=O)[C@H](Cc2ccc(OCC(=O)O)cc2)NC(=O)CSC[C@@H](C(=O)N[C@@H](C)C(N)=O)NC(=O)[C@H](CO)NC(=O)[C@H](C(C)C)NC1=O [Compound 1577] ({CH2CO}-Y(Carboxymethyl)Y(Carboxymethyl)DWV[Bip]E[NMeA][dL][Dab]LVSCA-NH2; thioether N-14)	0.03
